16 molecules from US12528812B2 (Genentech, Inc., priority 2020, dated 2026) can be followed below.

Test [1] deals with T1, recombinant human JAK1 kinase domain protein (Residues 854-1154) (Homo sapiens, UniProt P23458).
T1 construct: human JAK1 kinase domain protein (Residues 854-1154); purchased Proteros Biostructures GmbH (Martinsried, Germany); host or cells: insect cells
Nature of the test: JAK1 biochemical assay (LabChip mobility shift, Ki). Conditions: read-out: Biochem JAK1 Ki.

Test [2] deals with IL-13-stimulated STAT6 phosphorylation in human lung bronchial epithelial BEAS-2B cell line. Description: P-STAT6 BEAS-2B + IL-13 cell assay. The test is classed as cell-based. As to conditions: Homo sapiens, BEAS-2B, BEAS2B cells, IL13 stimulation; read-out: Cellular JAK1 PSTAT6 BEAS2B + IL13. The essentials: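 BEAS-2B cells grown 48 h at 37 °C, pre-treated 1 h with compound (10-point 1:2 dilution curve), then stimulated 15 min with human recombinant IL-13 (250 ng/mL stock). Lysate P-STAT6 (Tyr641) read by MSD sandwich ELISA with total-STAT6 capture; IC50 from four-parameter logistic fit of control-normalised data.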

Test [3] has as its target Recombinant human JAK2 kinase domain protein (Residues 812-1132) (Homo sapiens, UniProt O60674). Nature of the test: JAK2 biochemical assay (LabChip mobility shift, Ki). Conditions: Biochem JAK2 Ki.

Sequence of Recombinant human JAK2 kinase domain protein (Residues 812-1132) (O60674 812-1132): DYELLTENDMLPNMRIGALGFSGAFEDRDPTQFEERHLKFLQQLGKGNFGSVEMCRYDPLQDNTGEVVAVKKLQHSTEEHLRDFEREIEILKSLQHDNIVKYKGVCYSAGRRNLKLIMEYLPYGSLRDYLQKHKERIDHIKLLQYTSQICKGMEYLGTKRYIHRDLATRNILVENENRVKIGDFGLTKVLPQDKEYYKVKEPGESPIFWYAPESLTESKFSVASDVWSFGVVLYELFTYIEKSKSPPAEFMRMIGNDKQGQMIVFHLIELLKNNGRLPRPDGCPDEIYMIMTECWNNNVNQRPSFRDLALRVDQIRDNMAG
T1 sequence (P23458 854-1154): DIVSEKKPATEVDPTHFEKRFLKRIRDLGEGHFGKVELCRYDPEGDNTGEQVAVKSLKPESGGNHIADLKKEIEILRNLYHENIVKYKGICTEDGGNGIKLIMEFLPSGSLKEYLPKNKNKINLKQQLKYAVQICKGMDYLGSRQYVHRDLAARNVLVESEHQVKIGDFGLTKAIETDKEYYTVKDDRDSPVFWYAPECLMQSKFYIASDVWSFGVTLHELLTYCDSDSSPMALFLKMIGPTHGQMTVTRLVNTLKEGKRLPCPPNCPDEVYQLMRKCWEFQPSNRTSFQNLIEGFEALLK

Usually Ki stands for a measure of affinity in units of concentration, obtained from inhibition or displacement. Turning to `Cc1ccc(Oc2ccc(OC(F)F)c(-c3n[nH]cc3NC(=O)c3cnn4cccnc34)c2)cc1C(=O)N(C)C` [Example 10, N-[3-[2-(difluoromethoxy)-5-[3-(dimethylcarbamoyl)-4-methyl-phenoxy]phenyl]-1H-pyrazol-4-yl]pyrazolo[1,5-a]pyrimidine-3-carboxamide], the Ki in test [1] was found to be 0.24 nM; in test [3], 0.18 nM. Moreover, the IC50 in test [2] turned out to be 42 nM.
For `C[C@H](O)Cn1cc(Oc2ccc(OC(F)F)c(-c3nn(C)cc3NC(=O)c3cnn4cccnc34)c2)cn1` (racemic) [Example 120, N-[3-[2-(difluoromethoxy)-5-[1-[rac-(2R)-2-hydroxypropyl]pyrazol-4-yl]oxy-phenyl]-1-methyl-pyrazol-4-yl]pyrazolo[1,5-a]pyrimidine-3-carboxamide], in that order: 0.35 nM, 0.24 nM and 19 nM.
For `CN(C)C(=O)c1cc(Oc2ccc(OC(F)F)c(-c3nn(C)cc3NC(=O)c3cnn4cccnc34)c2)ccc1Cl` [Example 78, N-[3-[5-[4-chloro-3-(dimethylcarbamoyl)phenoxy]-2-(difluoromethoxy)phenyl]-1-methyl-pyrazol-4-yl]pyrazolo[1,5-a]pyrimidine-3-carboxamide], in that order: 0.31 nM, 0.22 nM and 21 nM.
Take `Cn1cc(NC(=O)c2cnn3cccnc23)c(-c2cc(Oc3cc(F)cc(C4(O)CNC4)c3)ccc2OC(F)F)n1` [Example 95, N-[3-[2-(difluoromethoxy)-5-[3-fluoro-5-(3-hydroxyazetidin-3-yl)phenoxy]phenyl]-1-methyl-pyrazol-4-yl]pyrazolo[1,5-a]pyrimidine-3-carboxamide]: the Ki amounted to 0.17 nM in test [1] and 0.23 nM in test [3]. Further, the IC50 in test [2] came to 110 nM.
For the molecule `CN1CC(O)(c2cccc(Oc3ccc(OC(F)F)c(-c4nn(C5CCOCC5)cc4NC(=O)c4cnn5cccnc45)c3)c2)C1` [Example 98, N-[3-[2-(difluoromethoxy)-5-[3-(3-hydroxy-l-methyl-azetidin-3-yl)phenoxy]phenyl]-1-tetrahydropyran-4-yl-pyrazol-4-yl]pyrazolo[1,5-a]pyrimidine-3-carboxamide], the Ki turned out to be 0.87 nM in test [1] and 2.8 nM in test [3]. The IC50 in test [2] was 61 nM.
The corresponding values for `O=C(Nc1cn(CCN[C@H]2C[C@H](O)C2)nc1-c1cc(Oc2ccccc2)ccc1OC(F)F)c1cnn2cccnc12` [Example 43, N-[3-[2-(difluoromethoxy)-5-phenoxy-phenyl]-1-[2-[(3-hydroxycyclobutyl)amino]ethyl]pyrazol-4-yl]pyrazolo[1,5-a]pyrimidine-3-carboxamide] are 0.3 nM, 0.31 nM and 24 nM.
On to `CCn1cc(NC(=O)c2cnn3cccnc23)c(-c2cc(Oc3cc(F)cc(C4(O)CN(C)C4)c3)ccc2OC(F)F)n1` [Example 107, N-[3-[2-(difluoromethoxy)-5-[3-fluoro-5-(3-hydroxy-1-methyl-azetidin-3-yl)phenoxy]phenyl]-1-ethyl-pyrazol-4-yl]pyrazolo[1,5-a]pyrimidine-3-carboxamide], for which the Ki worked out at 0.43 nM in test [1] and 0.49 nM in test [3]. Also, in test [2], the IC50 was 37 nM.
For `Cn1cc(NC(=O)c2cnn3cccnc23)c(-c2cc(Oc3ccc(CN4CCC[C@H](CO)C4)cc3)ccc2OC(F)F)n1` (racemic) [Example 162, 3-[2-(difluoromethoxy)-5-[4-[[rac-(3S)-3-(hydroxymethyl)-1-piperidyl]methyl]phenoxy]phenyl]-1-methyl-pyrazol-4-yl]pyrazolo[1,5-a]pyrimidine-3-carboxamide], in that order: 2.6 nM, 0.76 nM and 32 nM.
Turning to `Cn1cc(Oc2ccc(OC(F)F)c(-c3nn(CC(N)=O)cc3NC(=O)c3cnn4cccnc34)c2)cn1` [Example 174, N-[1-(2-amino-2-oxo-ethyl)-3-[2-(difluoromethoxy)-5-(1-methylpyrazol-4-yl)oxy-phenyl]pyrazol-4-yl]pyrazolo[1,5-a]pyrimidine-3-carboxamide], the Ki in test [1] is 1.6 nM; in test [3] it was 0.92 nM. Besides, in test [2], the IC50 was 240 nM.
The corresponding values for `CN1CC(O)(c2cccc(Oc3ccc(OC(F)F)c(-c4nn(CCO)cc4NC(=O)c4cnn5cccnc45)c3)c2)C1` [Example 97, N-[3-[2-(difluoromethoxy)-5[3-(3-hydroxy-1-methyl-azetidin-3-yl)phenoxy]phenyl]-1-(2-hydroxyethyl)pyrazol-4-yl]pyrazolo[1,5-a]pyrimidine-3-carboxamide] are 0.85 nM, 0.6 nM and 300 nM.
For `Cc1cc(Oc2ccc(OC(F)F)c(-c3nn(C)cc3NC(=O)c3cnn4cccnc34)c2)ccc1C(=O)N(C)C` [Example 74, N-[3-[2-(difluoromethoxy)-5-[4-(dimethylcarbamoyl)-3-methyl-phenoxy]phenyl]-1-methyl-pyrazol-4-yl]pyrazolo[1,5-a]pyrimidine-3-carboxamide], the figures for the Ki in test [1] and in test [3] were 0.61 nM and 0.26 nM, respectively. Further, in test [2], the IC50 worked out at 30 nM.
For `CNCc1ccnn1-c1cccc(Oc2ccc(OC(F)F)c(-c3nn(C)cc3NC(=O)c3cnn4cccnc34)c2)c1` [Example 66, N-[3-[2-(difluoromethoxy)-5-[3-[5-(methylaminomethyl)pyrazol-1-yl]phenoxy]phenyl]-1-methyl-pyrazol-4-yl]pyrazolo[1,5-a]pyrimidine-3-carboxamide], in that order: 3.9 nM, 3.6 nM and 130 nM.
Regarding `CCN1CC(O)(Cn2cc(Oc3ccc(OC(F)F)c(-c4nn(C)cc4NC(=O)c4cnn5cccnc45)c3)cn2)C1` [Example 207, N-[3-[2-(difluoromethoxy)-5-[1-[(1-ethyl-3-hydroxy-azetidin-3-yl)methyl]pyrazol-4-yl]oxy-phenyl]-1-methyl-pyrazol-4-yl]pyrazolo[1,5-a]pyrimidine-3-carboxamide], the Ki in test [1] was found to be 0.73 nM; in test [3], 0.53 nM. The IC50 in test [2] amounted to 33 nM.
For `Cn1cc(NC(=O)c2cnn3cccnc23)c(-c2cc(Oc3cnn([C@H]4C[C@H](N)C4)c3)ccc2OC(F)F)n1` [Example 188, N-[3-[5-[1-(3-aminocyclobutyl)pyrazol-4-yl]oxy-2-(difluoromethoxy)phenyl]-1-methyl-pyrazol-4-yl]pyrazolo[1,5-a]pyrimidine-3-carboxamide], in that order: 0.91 nM, 0.77 nM and 150 nM.
The corresponding values for `Cn1cc(NC(=O)c2cnn3cccnc23)c(-c2cc(Oc3ccccn3)ccc2OC(F)F)n1` [Example 175, N-[3-[2-(difluoromethoxy)-5-(2-pyridyloxy)phenyl]-1-methyl-pyrazol-4-yl]pyrazolo[1,5-a]pyrimidine-3-carboxamide] are 1.1 nM, 0.57 nM and 68 nM.
The corresponding values for `Cn1cc(NC(=O)c2cnn3cccnc23)c(-c2cc(Oc3cccc(CNCCN4CCOCC4)c3)ccc2OC(F)F)n1` [Example 47, N-[3-[2-(difluoromethoxy)-5-[3-[(2-morpholinoethylamino)methyl]phenoxy]phenyl]-1-methyl-pyrazol-4-yl]pyrazolo[1,5-a]pyrimidine-3-carboxamide] are 2 nM, 1.6 nM and 24 nM.
